Source: PubChem BioAssay (NCI)
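Compound exposure: 48 hours, 5 concentrations, 96-well plates. Here, GI50 denotes the concentration required for 50% inhibition of growth. TGI is the concentration that stops growth completely.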

Assays:
Test in all cases: DTP human tumour cell line panel, 48 h
COLO 205 colon = tested on: COLO 205 colon
SK-MEL-28 melanoma = tested on: SK-MEL-28 melanoma
NCI-H460 lung = tested on: NCI-H460 lung
SNB-75 CNS = tested on: SNB-75 CNS
UACC-62 melanoma = tested on: UACC-62 melanoma
HOP-62 NSCLC = tested on: HOP-62 NSCLC
MDA-MB-231 breast = tested on: MDA-MB-231 breast
UO-31 renal = tested on: UO-31 renal
HCC-2998 colon = tested on: HCC-2998 colon
HL-60(TB) leukemia = tested on: HL-60(TB) leukemia

SMILES	GI50 (COLO 205 colon)	TGI (COLO 205 colon)	GI50 (SK-MEL-28 melanoma)	TGI (SK-MEL-28 melanoma)	GI50 (NCI-H460 lung)	TGI (NCI-H460 lung)	GI50 (SNB-75 CNS)	TGI (SNB-75 CNS)	GI50 (UACC-62 melanoma)	TGI (UACC-62 melanoma)	GI50 (HOP-62 NSCLC)	TGI (HOP-62 NSCLC)	GI50 (MDA-MB-231 breast)	TGI (MDA-MB-231 breast)	GI50 (UO-31 renal)	TGI (UO-31 renal)	GI50 (HCC-2998 colon)	TGI (HCC-2998 colon)	GI50 (HL-60(TB) leukemia)	TGI (HL-60(TB) leukemia)
O=C(/C=C/OC(=O)c1cccc(Cl)c1)c1ccc(Cl)cc1	> 65 µM	> 100 µM	58.1 µM	> 100 µM	> 100 µM	> 100 µM	17.3 µM	73.5 µM	> 80.8 µM	> 100 µM	> 100 µM	> 100 µM	52.2 µM	> 100 µM	> 100 µM	> 100 µM	29.3 µM	> 100 µM	–	–
Fc1ccc(Nc2nc3ccccc3c3occc23)cc1	3.3 µM	12.9 µM	2.45 µM	16.6 µM	4.61 µM	19 µM	–	–	12.3 µM	24.8 µM	2.31 µM	13.8 µM	1.07 µM	19.9 µM	12.4 µM	27.8 µM	1.96 µM	7.31 µM	10.8 µM	36.8 µM
COCCn1cc(-c2csc(-c3c[nH]c4ccc(Br)cc34)n2)c2cccnc21	3.22 µM	34 µM	4.79 µM	> 100 µM	3.07 µM	> 100 µM	4.72 µM	29.4 µM	4.2 µM	> 100 µM	7.98 µM	47.7 µM	2.65 µM	> 100 µM	3.1 µM	> 100 µM	3.8 µM	> 100 µM	–	–
FC(F)(F)c1cc(Nc2ccc3cc(OCCCN4CCOCC4)ccc3n2)ccc1Cl	1.74 µM	3.49 µM	1.59 µM	3.39 µM	1.72 µM	3.42 µM	1.61 µM	3.92 µM	–	–	1.87 µM	3.63 µM	1.83 µM	4.2 µM	1.55 µM	3.27 µM	1.74 µM	3.38 µM	2.24 µM	6.49 µM
Cn1c2ccccc2c2c(=O)n(CCCC(=O)OC(=NC3CCCCC3)NC3CCCCC3)c3c(-c4ccccc4)nnn3c21	> 100 µM	> 100 µM	> 100 µM	> 100 µM	> 100 µM	> 100 µM	44.6 µM	> 100 µM	> 100 µM	> 100 µM	> 100 µM	> 100 µM	71.7 µM	> 100 µM	> 100 µM	> 100 µM	> 100 µM	> 100 µM	–	–
Cc1nccc2c3ccc(OCc4cn(-c5ccc(Cl)cc5)nn4)cc3n(CC(C)C)c12	1.51 µM	6.8 µM	4.14 µM	18.2 µM	2.33 µM	12.9 µM	5.09 µM	14.4 µM	2.31 µM	10.1 µM	–	–	4.69 µM	26.5 µM	1.72 µM	14 µM	3.68 µM	> 33.3 µM	0.886 µM	2.07 µM
CCCCCCCC(=O)[O][Hg][CH2]C1COC([CH2][Hg][O]C(=O)CCCCCCC)CO1 (stereo unspecified)	3.72 µM	14.6 µM	14 µM	27 µM	18.2 µM	37.4 µM	15.3 µM	34.6 µM	17.5 µM	45.3 µM	17.2 µM	30.9 µM	20.7 µM	50.8 µM	–	–	18 µM	33.1 µM	2.77 µM	> 100 µM
